Assay results as given in paper PMC4106981 (Neuropharmacology, 2014).
Structures can show the parent of a compound that is named as a salt.

Tests used:
Male ICR mice [1] = test: Activity counts in the drug-paired compartment on CPP test day; format: in vivo, mouse; settings: mean ± S.E.M., n=6-8
Male ICR mice [2] = test: Mecamylamine-precipitated nicotine withdrawal: elevated plus maze; format: in vivo, mouse
Male ICR mice [3] = test: Mecamylamine-precipitated nicotine withdrawal: somatic signs; format: in vivo, mouse; settings: methoxsalen 15 mg/kg i.p. 15 min before nicotine 2 mg/kg s.c. three times daily for 4 days; mecamylamine 2 mg/kg s.c. on day 5
[4] = Plasma nicotine and cotinine levels in the CPP test; format: in vivo, mouse
Male ICR mice [5] = test: Nicotine conditioned place preference; format: in vivo, mouse
human CYP2A6 = settings: ref Zhang et al., 2001; Damaj et al., 2007; cited from earlier work
[6] = CYP2A(4/5) null mouse; ref Wei et al., 2013; cited from earlier work
Male ICR mice [7] = test: Spontaneous nicotine withdrawal and its reversal: hot plate hyperalgesia; format: in vivo, mouse; settings: chronic nicotine 36 mg/kg/day in minipumps for 7 days, after removing the mini pumps
Male ICR mice [8] = settings: chronic nicotine 36 mg/kg/day in minipumps for 7 days, after removing the mini pumps

SMILES	Activity counts in the drug-paired compartment on test day (Male ICR mice [1]; methoxsalen 15 mg/kg i.p. + nicotine 0.1 mg/kg s.c.)	Activity counts in the drug-paired compartment on test day (Male ICR mice [1]; methoxsalen 15 mg/kg i.p. + saline)	Activity counts in the drug-paired compartment on test day (Male ICR mice [1]; methoxsalen 30 mg/kg i.p. + nicotine 0.1 mg/kg s.c.)	Activity counts in the drug-paired compartment on test day (Male ICR mice [1]; methoxsalen 30 mg/kg i.p. + saline)	Activity counts in the drug-paired compartment on test day (Male ICR mice [1]; methoxsalen 45 mg/kg i.p. + nicotine 0.1 mg/kg s.c.)	Activity counts in the drug-paired compartment on test day (Male ICR mice [1]; methoxsalen 45 mg/kg i.p. + saline)	Number Crossovers (Mean ± SEM) in the plus-maze test (Male ICR mice [2]; Methoxsalen 15 mg/kg i.p. / Vehicle / Mecamylamine 2 mg/kg s.c., 5 min, n=5-7)	Average time spent in open arms (elevated plus maze) (Male ICR mice [2]; methoxsalen 15 mg/kg i.p. 15 min before nicotine 2 mg/kg s.c. three times daily for 4 days, mecamylamine 2 mg/kg s.c. on day 5)	Somatic withdrawal signs (Male ICR mice [3])	Effect on nicotine plasma levels ([4]; highest dose of methoxsalen (45 mg/kg i.p.) before nicotine 0.1 mg/kg s.c.)	Effect on nicotine plasma levels ([4]; methoxsalen 15, 30, 45 mg/kg i.p. 15 min before nicotine 0.1 mg/kg s.c., blood 20 min after nicotine, last conditioning day)	Nicotine conditioned place preference (Male ICR mice [5]; methoxsalen 45 mg/kg i.p. 15 min prior to nicotine 0.1 mg/kg s.c.)	Nicotine conditioned place preference (Male ICR mice [5]; methoxsalen 15 and 30 mg/kg i.p. 15 min prior to nicotine 0.1 mg/kg s.c.)	Inhibition of human CYP2A6 (human CYP2A6)	Decrease in rate of nicotine clearance [6]	Nicotine conditioned place preference (Male ICR mice [5]; nicotine 0.1 mg/kg s.c. alone (vehicle pretreatment), vs vehicle-treated group)	Time spent on the hot-plate in spontaneous withdrawal (Male ICR mice [7])	Number of somatic signs in spontaneous withdrawal (Male ICR mice [8])
COc1c2occc2cc2ccc(=O)oc12 [Methoxsalen, 8-methoxypsoralen]	524 ± 69	561 ± 83	488 ± 111	470 ± 105	513 ± 103	503 ± 89	6.0 ± 0.8	further decrease	significant somatic withdrawal signs	doubled	significantly increased	no longer significant	produced a significant CPP	potent inhibitor				
CN1CCC[C@H]1c1cccnc1 [Nicotine, (−)-1-Methyl-2-(3-pyridyl) pyrrolidine (+)-bitartrate salt]															90%	did not induce place preference	decreased	significantly increased
